Measured values as given in patent publication US20240226228A1, “ANTIMICROBIAL PEPTOID HAVING IMPROVED SELECTIVITY AND ANTIMICROBIAL COMPOSITION COMPRISING SAME” (priority 2021, published 2024).
Converted amounts (≈) assume the structure as drawn. Read-outs that look alike come from different tables or passages of the source. Where a SMILES comes first, the peptide text is derived from it. [ ]: non-standard residue; d: D form. Gly(N(CH2)2(3-indolyl)) = O=C(O)CNCCc1c[nH]c2ccccc12; Gly(N-CH2CH2-imidazol-4-yl) = O=C(O)CNCCc1c[nH]cn1; Nspe = C[C@H](NCC(=O)O)c1ccccc1; Nphe = O=C(O)CNCc1ccccc1; Nlys = NCCCCNCC(=O)O

Experiments:
red blood cells = assay: Hemolysis assay; type: cell-based, Sprague-Dawley mouse
Summary of the method: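 Peptoid is mixed with 10% (v/v) PBS-washed erythrocytes (male Sprague-Dawley […], 13 weeks) and held 1 h at 37 °C. Hemolysis is calculated from 540 nm absorbance of the supernatant, with PBS as 0% and Triton X-100 as 100%.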

E. coli ATCC25922 = test system: E. coli ATCC25922
Summary of the method: (§1)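 Cation-adjusted MHB2 cultures (18 h, subcultured 4 h) adjusted to 2×10^5–5×10^5 CFU/mL in medium with 0.02% BSA and 0.001% acetic acid.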

S. aureus ATCC 25923 = test system: S. aureus ATCC 25923
Summary of the method: as §1

[1] = Tables 11-13, 24 hours at 37° C., maximum concentration 25 μM
[2] = Table 18, TFA salt vs counter ion-substituted (HCl, AcOH) peptoids

## C[C@@H](c1ccccc1)N(CC(N)=O)C(=O)CN(CCCCN)C(=O)CN(CCCCN)C(=O)CN(C(=O)CN(C(=O)CN(CCc1c[nH]cn1)C(=O)CN(C(=O)CN(C(=O)CN(CCCCN)C(=O)CN(CCc1c[nH]c2ccccc12)C(=O)CN(CCc1c[nH]c2ccccc12)C(=O)CNCCCCN)[C@@H](C)c1ccccc1)[C@@H](C)c1ccccc1)[C@@H](C)c1ccccc1)[C@@H](C)c1ccccc1 [Peptoid 74] (H-[Nlys][Gly(N(CH2)2(3-indolyl))][Gly(N(CH2)2(3-indolyl))][Nlys][Nspe][Nspe][Gly(N-CH2CH2-imidazol-4-yl)][Nspe][Nspe][Nlys][Nlys][Nspe]-NH2)
Red blood cells
  HD10: 81.7
  HD50: > 100.0
  Hmax (100 μM): 14.2 ± 0.3
E. coli ATCC25922; ATCC25922
  MIC E. coli ATCC25922: 6.3 µM (≈ 11.9 µg/mL)
S. aureus ATCC 25923; ATCC 25923
  MIC S. aureus ATCC 25923: 3.1 µM (≈ 5.85 µg/mL)

## C[C@@H](c1ccccc1)N(CC(=O)N(CCc1c[nH]c2ccccc12)CC(=O)N(CCCCN)CC(=O)N(CC(=O)N(CC(=O)N(CCCCN)CC(=O)N(CC(=O)N(CC(=O)N(CCCCN)CC(=O)N(CC(=O)N(CCc1c[nH]c2ccccc12)CC(N)=O)[C@@H](C)c1ccccc1)[C@@H](C)c1ccccc1)[C@@H](C)c1ccccc1)[C@@H](C)c1ccccc1)[C@@H](C)c1ccccc1)C(=O)CNCCCCN [Peptoid 16] (H-[Nlys][Nspe][Gly(N(CH2)2(3-indolyl))][Nlys][Nspe][Nspe][Nlys][Nspe][Nspe][Nlys][Nspe][Gly(N(CH2)2(3-indolyl))]-NH2)
Red blood cells
  HC10: 13.8 µM
  HC50: 25.0 µM
  Hmax (100 μM): 100.3 ± 1.7%
E. coli ATCC25922; [1]
  MIC E. coli ATCC25922: 6.3 µM (≈ 12 µg/mL)
S. aureus ATCC 25923; [1]
  MIC S. aureus ATCC 25923: 1.6 µM (≈ 3.04 µg/mL)

## NCCCCNCC(=O)N(CC(=O)N(CC(=O)N(CCCCN)CC(=O)N(CC(=O)N(CC(=O)N(CCCCN)CC(=O)N(CC(=O)N(CC(=O)N(CCCCN)CC(=O)N(CC(=O)N(CC(N)=O)Cc1ccccc1)Cc1ccccc1)Cc1ccccc1)Cc1ccccc1)Cc1ccccc1)Cc1ccccc1)Cc1ccccc1)Cc1ccccc1 [Peptoid 2] (H-[Nlys][Nphe][Nphe][Nlys][Nphe][Nphe][Nlys][Nphe][Nphe][Nlys][Nphe][Nphe]-NH2)
Red blood cells
  HC10: 20.4 µM
  HC50: > 100.0 µM
  Hmax (100 μM): 17.7 ± 1.1%
E. coli ATCC25922; [1]
  MIC E. coli ATCC25922: 12.5 µM (≈ 21.3 µg/mL)
S. aureus ATCC 25923; [1]
  MIC S. aureus ATCC 25923: 3.1 µM (≈ 5.29 µg/mL)

## C[C@@H](c1ccccc1)N(CC(=O)N(CCCCN)CC(=O)N(CCCCN)CC(=O)N(CC(=O)N(CC(=O)N(CCCCN)CC(=O)N(CC(=O)N(CC(=O)N(CCCCN)CC(N)=O)[C@@H](C)c1ccccc1)[C@@H](C)c1ccccc1)[C@@H](C)c1ccccc1)[C@@H](C)c1ccccc1)C(=O)CN(CCCCN)C(=O)CN(CCc1c[nH]c2ccccc12)C(=O)CNCCc1c[nH]c2ccccc12 [Peptoid 38] (H-[Gly(N(CH2)2(3-indolyl))][Gly(N(CH2)2(3-indolyl))][Nlys][Nspe][Nlys][Nlys][Nspe][Nspe][Nlys][Nspe][Nspe][Nlys]-NH2)
Red blood cells
  HC10: >100/>100 μM
  HC50: >100/>100 μM
  Hmax (100 μM): 5.9 ± 0.5%
E. coli ATCC25922; [1]
  MIC E. coli ATCC25922: 12.5 µM (≈ 23.3 µg/mL)
S. aureus ATCC 25923; [1]
  MIC S. aureus ATCC 25923: 6.3 µM (≈ 11.7 µg/mL)

## C[C@@H](c1ccccc1)N(CC(N)=O)C(=O)CN(C(=O)CN(CCCCN)C(=O)CN(C(=O)CN(CCCCN)C(=O)CN(CCCCN)C(=O)CN(C(=O)CN(C(=O)CN(CCCCN)C(=O)CN(CCc1c[nH]c2ccccc12)C(=O)CN(CCc1c[nH]c2ccccc12)C(=O)CNCCCCN)[C@@H](C)c1ccccc1)[C@@H](C)c1ccccc1)[C@@H](C)c1ccccc1)[C@@H](C)c1ccccc1 [Peptoid 33]
Red blood cells
  HC10: >100/>100 μM
  HC50: >100/>100 μM
  Hmax (100 μM): 5.0 ± 0.2%
E. coli ATCC25922; [1]
  MIC E. coli ATCC25922: 12.5 µM (≈ 23.3 µg/mL)
S. aureus ATCC 25923; [1]
  MIC S. aureus ATCC 25923: 3.1 µM (≈ 5.78 µg/mL)

## C[C@@H](c1ccccc1)N(CC(N)=O)C(=O)CN(C(=O)CN(CCCCN)C(=O)CN(C(=O)CN(CCc1c[nH]c2ccccc12)C(=O)CN(CCCCN)C(=O)CN(CCc1c[nH]c2ccccc12)C(=O)CN(C(=O)CN(CCCCN)C(=O)CN(C(=O)CN(C(=O)CNCCCCN)[C@@H](C)c1ccccc1)[C@@H](C)c1ccccc1)[C@@H](C)c1ccccc1)[C@@H](C)c1ccccc1)[C@@H](C)c1ccccc1 [Peptoid 15-2]
Red blood cells
  HC10: 39.2 µM
  HC50: > 100 µM
  Hmax (100 μM): 34.1 ± 1.1%
E. coli ATCC25922; [2]
  MIC E. coli ATCC25922: 6.3 µM
S. aureus ATCC 25923; [2]
  MIC S. aureus ATCC 25923: 3.1 µM

## C[C@@H](c1ccccc1)N(CC(=O)N(CCCCN)CC(=O)N(CC(=O)N(CC(=O)N(CCCCN)CC(=O)N(CC(=O)N(CC(=O)N(CCCCN)CC(=O)N(CC(=O)N(CC(N)=O)Cc1ccccc1)Cc1ccccc1)[C@@H](C)c1ccccc1)[C@@H](C)c1ccccc1)[C@@H](C)c1ccccc1)[C@@H](C)c1ccccc1)C(=O)CN(C(=O)CNCCCCN)[C@@H](C)c1ccccc1 [Peptoid 44] (H-[Nlys][Nspe][Nspe][Nlys][Nspe][Nspe][Nlys][Nspe][Nspe][Nlys][Nphe][Nphe]-NH2)
Red blood cells
  HC10: 6.3 µM
  HC50: 28.6 µM
  Hmax (100 μM): 97.9 ± 3.7%
E. coli ATCC25922; [1]
  MIC E. coli ATCC25922: 6.3 µM (≈ 11.3 µg/mL)
S. aureus ATCC 25923; [1]
  MIC S. aureus ATCC 25923: 1.6 µM (≈ 2.87 µg/mL)
